Measured values published in patent US20040180908A1, “Adenosine derivative in polymorph ii form” (priority 2001, published 2004).

Assay: stability of the polymorph at elevated temperatures
Type: physicochemical
Details: for example in excess of 70° C.

For `CC(C)(C)c1nnc([C@H]2O[C@@H](n3cnc4c(Nc5ccc(Cl)cc5F)ncnc43)[C@H](O)[C@@H]2O)o1` [Polymorph II, (2S,3S,4R,5R)-2-(5-tert-butyl-[1,3,4]-oxadiazol-2-yl)-5-[6-(4-chloro-2-fluorophenylamino)-9H-purin-9-yl]-tetrahydrofuran-3,4-diol], the “stability at elevated temperatures” value was “particular stability at elevated temperatures”.
